The structures appear in SMILES notation.

Data set [1] is described as follows: Plasma stability in monkey plasma (LC-MS/MS). It is filed as in vitro ADME. The note with it: cryopreserved monkey plasma; monkey plasma, 37° C., 1 μM; read-out: T1/2 (min)/monkey. How it is done: The stability of the compound of Example 6 and the control example CC-92480 after incubation in cryopreserved monkey plasma at 37° C. for 0 min, 15 min, 30 min, 60 min, 120 min, 180 min and 240 min was determined quantitatively by LC-MS/MS.
Compound of Example 6 and control example CC-92480.
Monkey plasma was purchased from Shanghai Medicilon Inc.
A certain amount of the compound of Example 6 was weighed and prepared with DMSO to obtain a 30 mM stock solution. A certain volume of the stock solution was diluted into a solution I at a concentration of 1600 μM with DMSO; and a certain volume of the solution I at 1600 μM was diluted with 50% methanol to obtain a working solution II at a concentration of 16 μM. A 30 mM stock solution, a 1600 μM solution I′, and a 16 μM working solution II′ of CC-92480 were prepared as described above.
5 μL of the working solutions at 16 μM of the compound of Example 6 and the control example CC-92480 were each added to 75 μL of plasma to make the final concentration of the compounds of 1 μM. The samples were incubated under a 37° C. water bath for 0 min, 15 min, 30 min, 60 min, 90 min, 120 min, and 180 min. […] The supernatant was analyzed by LC-MS with a sample injection volume of 2 μL.

In a further data set the test system is NCI-H929 xenograft tumor. As to the kind of experiment: Pharmacodynamic test: NCI-H929 xenograft tumor in CB-17 SCID mice. The format is in vivo. Here is the method: This experiment was performed to evaluate the inhibition effect of the compound of Example 6 and the control example CC-92480 on the growth of human multiple myeloma cell NCI-H929 xenograft tumor in CB-17 SCID mice.
Compound of Example 6; control example CC-92480 (see compound 2 of WO2019014100A1, synthesized according to the method disclosed therein)
Solutions of the compound of Example 6 and the control example CC-92480 were prepared with 5% DMSO+20% PEG400+70% (10% TPGS)+5% (1% HPMC K100LV).
Thirty CB-17 SCID female mice, purchased from Beijing Vital River Laboratory Animal Technology Co., Ltd. (certificate No. 20170011006049, SCXK (Shanghai) 2017-0011), weighing about 19 g at the time of purchase, were bred at 5 mice/cage (in 12/12 hour light/dark cycle, at a constant temperature of 23±1° C. and humidity of 50%-60%) and had free access to food and water.
After adaptive feeding, the CB-17 SCID mice were grouped as follows:
NCI-H929 cells in a logarithmic growth phase were inoculated subcutaneously into the right flank of 30 female CB-17 SCID mice at 5×10^6 cells/mouse/100 μL (containing 50 μL of Matrigel). After 10 days, when the tumor volume of the tumor-bearing mice reached about 200 mm^3, the mice were randomly divided into 3 groups according to the tumor volume and body weight: vehicle control group, CC-92480-1 mpk, compound of Example 6-1 mpk, with 7 mice in each group. The day of grouping was set as Day 0 (D0), and intragastric administration was performed once a day for 11 days (Table 2). For the tumor-bearing mice, the tumor volume was measured with a vernier caliper and the body weight was measured with a balance twice a week, and the data were recorded.
All data were plotted and statistically analyzed using Excel and GraphPad Prism 5 software.
The tumor volume (V) was calculated as follows: V=½×a×b^2, where a and b represent length and width, respectively.
The relative tumor proliferation rate T/C (%)=(T−T0)/(C−C0)×100(%), where T and C are the tumor volume of animals at the end of the experiment in the treatment group and control group, respectively; T0 and C0 are the tumor volume of animals at the beginning of the experiment in the treatment group and control group, respectively.
Tumor growth inhibition TGI (%)=1−T/C (%), and when TGI (%) exceeds 100%, no specific value will be shown, and it is expressed only by >100%.
Tumor regression (%)=[(T0−T)/T0]×100(%).

Regarding `N#Cc1ccc(N2CCC(Sc3ccc(COc4cccc5c4CN([C@H]4CCC(=O)NC4=O)C5=O)cn3)CC2)c(F)c1` [Compound 6, (S)-4-(4-((5-(((2-(2,6-dioxopiperidin-3-yl)-1-oxoisoindolin-4-yl)oxy)methyl)pyridin-2-yl)thio)piperidin-1-yl)-3-fluorobenzonitrile], the half-life at 1 µM in data set [1] amounted to 806 min. The “tumor inhibition rate (TGI)” value in the data set with NCI-H929 xenograft tumor (1 mg/kg qd, 11 days after administration) is greater than 100%. Besides, in the data set on NCI-H929 xenograft tumor (1 mg/kg qd, baseline at day of grouping (D0), n=7), the “Mean tumor volume D0” value worked out at 155.4 mm^3. Moreover, the “Number of remaining animals/group” value in the data set on NCI-H929 xenograft tumor (1 mg/kg qd/11d po) is reported as 7/7. The “% tumor regression D11” value with NCI-H929 xenograft tumor (1 mg/kg qd/11d po (i.g.), D11) is 88%. In addition, the “Mean tumor volume D11” value with NCI-H929 xenograft tumor (1 mg/kg qd/11d po (i.g.), D11, n=7) was found to be 18.6 mm^3.

The record behind these values is patent US20230257366A1, “SULFUR-CONTAINING ISOINDOLINE DERIVATIVE, AND PREPARATION METHOD THEREFOR AND MEDICAL USE THEREOF” (JIANGSU HENGRUI PHARMACEUTICALS CO., LTD., priority 2020, published 2023).
